{"source": "patent US5387578A", "about": "(priority 1990, dated 1995)", "key": {"[1]": {"test_system": "LoVo-Doxo-resistant (LoVo/DX) cells", "type": "cell-based", "details": "human, lovo/dx vs lovo cells, 240 min"}, "[2]": {"assay": "Release of 13b from conjugates in acetate buffer at 37° C.", "type": "physicochemical", "details": "pH 5, 37° C., ionic strength 0.05M, HPLC", "protocol": "In Table 4 are reported t50 % of release of 3'deamino-3'[2(S) -methoxy-4-morpholinyl]doxorubicin (13b) from the conjugates at […] (acetate buffer) at 37° C.\nRelease of 13b from conjugates at pH 5 and\ntemperature 37° C. in acetate buffer^(7).\n^(6) Time requests for the release of 50% of free drug 13b. Determine\nby HPLC using a calibration curve of compound 13b.\n^(7) Ionic strenght 0.05M."}}, "data": [{"molecule": "COc1cccc2c1C(=O)c1c(O)c3c(c(O)c1C2=O)C[C@@](O)(C(=O)CO)C[C@@H]3O[C@H]1C[C@H](N2CCO[C@H](OC)C2)[C@H](O)[C@H](C)O1", "note": "[Compound 13b]", "values": [{"measurement": "R.I. = Resistance Index = (IC50 LoVo/DX)/(IC50 LoVo)", "setting": "[1]", "result": 2}]}, {"molecule": "COc1cccc2c1C(=O)c1c(O)c3c(c(O)c1C2=O)C[C@@](O)(C(=O)CO)C[C@@H]3O[C@H]1C[C@H](N)[C@H](O)[C@H](C)O1", "note": "[Doxorubicin]", "values": [{"measurement": "R.I. = Resistance Index = (IC50 LoVo/DX)/(IC50 LoVo)", "setting": "[1]", "result": 36.3}]}, {"molecule": "conjugate of Poly(Glu-Na, Ala.Tyr) (1:1:1) and 14-O-(1-piperazinocarbonylmethyloxy-cyclohexyl)-3'-deamino[2(S)-methoxy-4- morpholinyl]doxorubicin [1^viii]", "values": [{"measurement": "t50% (time for the release of 50% of free drug 13b)", "setting": "[2]", "result": 3.5, "unit": "h"}]}, {"molecule": "copolymer of 3-methacryloylamino-2-hydroxypropane and 14-O-{1-[4-(6-methacryloylaminocaproyl)piperazinlyl]-carbonylmethyloxy-cyclohexyl}-3'-deamino-3'[2(S)-methoxy-4-morpholinyl]doxorubicin [1^vii]", "values": [{"measurement": "t50% (time for the release of 50% of free drug 13b)", "setting": "[2]", "result": 20, "unit": "h"}]}]}
